Like-named read-outs stand apart in the source and are kept apart here.
Key:
OCI-LY10 cells [1] = assay: OCI-LY10 flow staining (Ki67, active Caspase-3, IRAK4); format: cell-based, human; conditions: FIG. 4
Experimental: OC1-LY10 cell line was cultured in IMDM medium supplemented with 20% FBS, B-ME and pen/strep. On Day 1, cells were plated at 200K per well in 96 well plates. Compounds were diluted to 1000× in DMSO, then further diluted to 100× in media, and added to cells at 4 concentrations over 4 different timepoints (24h, 48h, 72h and 96h). Timepoints were staggered so all cells were harvested and stained at the same time. Paclitaxel was added as a positive control and a DMSO control for each timepoint was also included. On day 5, plates were harvested and cells were fixed, permeabilized, and stored at −4 C until further processing. On day 8, the Ki67 plates were stained using KI-67-APC antibody (Biolegend, Cat #350514). The Caspase 3 plates were stained using the PE Active Caspase-3 Apoptosis Kit (BD Biosciences, Cat #550914) and the IRAK 4 plates were stained with Hu IRAK4 A^b Alexa 647 Clone: L29-525 antibody (BD, Cat #560315). Cells were resuspended in staining buffer and run on a Beckman Coulter CytoFlex 13 color Cytometer (Model #A00-1-1102, Serial #AS10086).

OCI-LY10 cells [2] = assay: In vitro combination studies in OCI-LY10 (Chou-Talalay); format: cell-based, human
Experimental: The ABC-DLBCL cell line OCI-LY10 was MV4-11 cells were maintained in IMDM (Invitrogen, supplemented with 20% heat inactivated fetal bovine serum (Life Technologies, Grand Island, N.Y) plus+BME. Cultures were maintained in a humidified atmosphere including 5% CO2. Studies were performed using OCI-LY10 cells in vitro to evaluate the anti-proliferative effect of a combination of two agents together on cell growth. The cell counts were measured by ATP quantitation using the Promega Cell Titer Glo kit and luminescence values corresponded to the amount of ATP in a given well. Compounds evaluated for synergy were tested in a range which was bracketed around the IC50's. The compounds were plated to a 384 well plate in a matrix format which includes increasing concentrations of each drug in the combination in a constant ratio, in addition to the effect of each compound alone in the study. […] DMSO concentration was less than 0.2% v/v.
The drug combination analysis was performed utilizing the Chou-Talalay method [Chou TC Pharmacological Reviews 2006]. Maximum and minimum inhibition (DMSO alone) controls were used in each plate to calculate fraction affected (Fa) of a test well. […] Synergy was determined using the software package Calcusyn by Biosoft. Graphs representing values of combination index (CI) versus Fractional effect (Fa) known as Fa-CI plots were generated and synergy was evaluated.

IRAK4 [3] = target: IRAK4 (Mus musculus (Mouse), UniProt Q8R4K2); assay: In vivo IRAK4 degradation in BALB/c mouse spleen (air pouch study); conditions: three PO doses; FIG. 8
Chain of IRAK4 (Mus musculus (Mouse), UniProt Q8R4K2) (Q8R4K2 whole entry): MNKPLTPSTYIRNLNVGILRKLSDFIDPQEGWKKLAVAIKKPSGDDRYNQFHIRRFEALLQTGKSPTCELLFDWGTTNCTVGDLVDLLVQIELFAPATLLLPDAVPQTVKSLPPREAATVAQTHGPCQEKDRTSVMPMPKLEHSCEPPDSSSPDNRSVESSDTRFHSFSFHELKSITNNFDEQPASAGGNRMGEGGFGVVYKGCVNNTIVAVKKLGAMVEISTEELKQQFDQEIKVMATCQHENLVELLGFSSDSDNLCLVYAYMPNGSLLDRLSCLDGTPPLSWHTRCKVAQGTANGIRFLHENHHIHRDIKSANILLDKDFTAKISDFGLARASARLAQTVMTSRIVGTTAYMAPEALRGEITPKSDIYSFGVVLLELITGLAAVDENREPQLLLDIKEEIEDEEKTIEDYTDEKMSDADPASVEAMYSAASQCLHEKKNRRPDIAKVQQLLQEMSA
Experimental: Dosing of Degrader: Mice were dosed orally at 10 mL/kg with suspensions above, giving 10 mg/kg, 30 mg/kg and 100 mg/kg final dose levels, three times at 8-hour intervals.
Termination, Cell Collection and Data: Four hours after MSU/saline injection, the mice were anesthetized and humanely exsanguinated. The spleens were removed, halved, flash frozen in labeled Eppendorf tubes in liquid nitrogen, and stored at −80° C. for determination of IRAK4 using targeted MS/MS with labeled peptide internal standard. Immediately after the bleed, 3 ml 10 U/mL heparinized saline was injected into the air pouch. The air pouch was gently massaged, the contents immediately removed, and the exudate volume recorded. After allowing the MSU crystals to settle out for fifteen minutes in an ice bath, an aliquot of the exudate was transferred to labeled Eppendorf tubes for differential white blood cell counts, including neutrophils.

IRAK4 [4] = target: IRAK4 (Homo sapiens (Human), UniProt Q9NWZ3); assay: IRAK4 quantification in xenograft tumors by UPLC-MS/MS (tumor PD); format: in vivo, mouse; conditions: OCI-LY10 xenograft-bearing mice, oral dosing; FIG. 14
Chain of IRAK4 (Homo sapiens (Human), UniProt Q9NWZ3) (Q9NWZ3 whole entry): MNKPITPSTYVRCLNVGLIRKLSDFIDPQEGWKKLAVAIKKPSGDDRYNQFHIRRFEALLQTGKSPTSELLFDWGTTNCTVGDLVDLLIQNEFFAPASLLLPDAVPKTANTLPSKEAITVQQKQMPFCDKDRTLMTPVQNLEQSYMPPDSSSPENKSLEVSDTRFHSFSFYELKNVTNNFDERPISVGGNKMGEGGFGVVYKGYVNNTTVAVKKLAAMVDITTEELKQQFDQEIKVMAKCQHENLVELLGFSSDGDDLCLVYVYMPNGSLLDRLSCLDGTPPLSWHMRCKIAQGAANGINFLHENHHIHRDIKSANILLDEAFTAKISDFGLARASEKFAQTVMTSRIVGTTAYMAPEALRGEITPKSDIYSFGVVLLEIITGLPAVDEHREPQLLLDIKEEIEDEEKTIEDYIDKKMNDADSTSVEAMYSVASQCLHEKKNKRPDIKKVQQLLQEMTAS
Experimental: At termination: At pre-determined time points based on study design, animals were humanely sacrificed by CO2. Blood was obtained by cardiac puncture for isolation of plasma, any residual tumor was removed and divided in 2 portions, 1 (minimal) for terminal compound exposure and 1 to determine IRAK4 and actin. Compound was determined in tumor and plasma using LC/MS with calibrated standards.
Interleukin-1 receptor-associated kinase 4 (IRAK4) was quantified in human OCI-LY10 and TMD8 xenograft tumors, together with mouse splenocytes and peripheral blood mononuclear cells (PBMCs), by ultra-performance liquid chromatography-tandem mass spectrometry (UPLC-MS/MS). The concentrations of IRAK4 were normalized by the concentrations of actin in the respective samples. […]
Signature peptide concentrations were quantitated using a sensitive and specific targeted LC-MS/MS method. […]
Signature peptide levels (LAVAIK, […]) were quantified by UPLC-MS/MS. […] A SCIEX TripleTOF 6600 LC-MS/MS system was used for the detection and quantitation of analytes. The intensities of the analytes and ISs were determined by integration of extracted ion peak areas using Analyst and MultiQuant 3.0 software. […] Measured peptide levels were corrected for sample work up and converted to actual protein concentrations in ng/mg total protein of cell lysate. […]

SU-DHL2 = SU-DHL2 viability, CTG; format: cell-based; conditions: Homo sapiens, SU-DHL-2

Compound	induction of apoptosis in OCI-LY10 lymphoma line (OCI-LY10 cells [1])	apoptosis, combined with a BTK inhibitor (OCI-LY10 cells [2]; OCI-LY10 bearing MYD88 L265P and CD79 mutations, within 72 h, FIG. 12)	synergy with BTK inhibition vs cell viability (OCI-LY10 cells [2]; four day Cell Titer Glo read out)	IRAK4 in BALB/c mouse spleen (IRAK4 [3])	degradation of IRAK4 correlating with tumor regression (IRAK4 [4])	IC50 (SU-DHL2; MYD88 MUT, read-out: SU-DHL2 CTG IC50)	IC50 (SU-DHL2; MYD88 Mutant Lines, read-out: SU-DHL2 Viability, CTG IC50)
CN(CCCOCCCc1cccc2c1n(C)c(=O)n2C1CCC(=O)NC1=O)C[C@H]1CC[C@H](n2cc(NC(=O)c3coc(-c4ccnc(NCC5CC5)c4)n3)c(C(F)F)n2)CC1 (mixture of isomers) [I-30, 2-[2-(Cyclopropylmethylamino)-4-pyridyl]-N-[3-(difluoromethyl)-1-[4-[[3-[3-[1-(2,6-dioxo-3-piperidyl)-3-methyl-2-oxo-benzimidazol-4-yl]propoxy]propyl-methyl-amino]methyl]cyclohexyl]pyrazol-4-yl] oxazole-4-carboxamide]	induces apoptosis	greater than additive increase in apoptosis	synergistic	in vivo degradation of IRAK4	–	–	–
CN(C[C@H]1CC[C@H](n2cc(NC(=O)c3coc(-c4ccnc(NCC5CC5)c4)n3)c(C(F)F)n2)CC1)C1CCN(Cc2cccc3c2n(C)c(=O)n3C2CCC(=O)NC2=O)CC1 (stereo partly shown) [I-75, 2-(2-((cyclopropylmethyl)amino)pyridin-4-yl)-N-(3-(difluoromethyl)-1-((1r,4r)-4-(((1-((1-(2,6-dioxopiperidin-3-yl)-3-methyl-2-oxo-2,3-dihydro-1H-benzo[d]imidazol-4-yl)methyl)piperidin-4-yl)(methyl)amino)methyl)cyclohexyl)-1H-pyrazol-4-yl)oxazole-4-carboxamide]	–	–	–	–	> 75%	290 nM	290 nM

Source: US11352350B2, “IRAK degraders and uses thereof” (Kymera Therapeutics, Inc., priority 2018, dated 2022)
